Experimental data from PMC12434071, “Platinum-group metal half-sandwich complexes of 1-(α-D-glucopyranosyl)-4-hetaryl-1,2,3-triazoles: synthesis, solution equilibrium studies, and investigation of their anticancer and antimicrobial activities” (Frontiers in Chemistry, 2025).

What was measured:
[1] = tested on: A2780 cells; assay: MTT reduction assay on A2780 cells; format: cell-based; conditions: maximal inhibition; 4 h treatment; maximum concentration 100 µM
Description: For MTT assays, 4 × 10^3 A2780 cells were plated into 96-well plates, and for SRB assays, 1.5 × 10^3 A2780 cells were plated into 96-well plates. Cells were treated with the compounds in the concentrations indicated for either 4 h for an MTT assay or for 48 h for an SRB assay. Data are represented as average ± SD, from four biological replicates, with the exception of the MTT dataset of Ir-2b and the SRB datasets of 2b, Ru/Ir-2b, and Ir-3a, which were derived from three biological replicates. Individual assays were performed in duplicate. Values were normalized for vehicle-treated cells, and the absorbance for vehicle-treated cells equals 1. Data are represented as fold change compared to vehicle-treated controls. Normality was assessed using the D'Agostino-Pearson test. Statistical significance was assessed using a two-way ANOVA test followed by Tukey's post hoc test. For better visibility, normality, transformations, statistical tests, and p values are presented in an MS Excel sheet at https://figshare.com/s/3a0aa60b66f3f746f41e. Color code: black-free ligand (2a,b or 3a), khaki-ruthenium complex (Ru-2a,b or Ru-3a), green-iridium complex (Ir-2a,b or Ir-3a).  FIGURE 5 The ruthenium, osmium, and iridium complexes of ligands 4a, 4b, and 5a decrease MTT reduction. For MTT assays, 4 × 10^3 A2780 cells, 3 × 10^3 ID8 cells, or 6 × 10^3 human primary fibroblasts were plated into 96-well plates. Cells were treated with the compounds in the concentrations indicated for 4 h. Data are represented as average ± SD, from four biological replicates on A2780, and from three biological replicates on ID8 and human primary fibroblasts. For the datasets of 5a and Os-5a on human primary fibroblasts, the data represent four biological replicates. Individual assays were performed in duplicate. Values were normalized for vehicle-treated cells, and the absorbance for vehicle-treated cells equals 1. Normality was assessed using the D'Agostino-Pearson test. Statistical significance was assessed using a two-way ANOVA test followed by Tukey's post hoc test. For better visibility, normality, transformations, statistical tests, and p values are presented in an MS Excel sheet at https://figshare.com/s/3a0aa60b66f3f746f41e. Color code: black-free ligand (4a,b or 5a), khaki-ruthenium complex (Ru-4a,b), green-iridium complex (Ir-4a,b), blue-osmium complex (Os-4a,b or Os-5a), and red-rhodium complex (Rh-4a,b). An MTT reduction assay measures the activity of mitochondrial complex I and can be used to detect toxicity ([[…] et al., 2016]). The assay was performed in a manner similar to that described by [[…] et al. (2023b)]. Briefly, cells were plated into 96-well plates the day before the assay. Cells were treated with the compounds for 4 h; then, MTT was added to a 0.5 mg/mL final concentration, and cells were incubated at 37°C in a cell incubator for 40-60 min, as a function of the cell line being assessed. The culture medium was removed, the reduced MTT dye was dissolved in dimethylsulfoxide, and plates were measured in a plate photometer (Thermo Scientific Multiscan GO spectrophotometer, Waltham, MA, United States) at 540 nm. Certain wells were designated to contain vehicle-treated cells on each plate. In calculations, the readings for these wells were considered to 1, and all readings were expressed relative to these values. Statistical analysis was performed using version 8.0.1 of GraphPad Prism. Values were tested for normal distribution using the D'Agostino-Pearson or Shapiro-Wilk normality tests. When necessary, values were log-normalized or normalized using the Box-Cox or two-step normalization method ([Box and Cox, 1964]), as indicated in the MS Excel file listing the values at https://figshare.com/s/3a0aa60b66f3f746f41e. The following statistical test, post hoc test, and the level of significance are indicated in the MS Excel file listing the values at https://figshare.com/s/3a0aa60b66f3f746f41e. […]

[2] = tested on: A2780 cells; assay: SRB assay on A2780 cells; format: cell-based; conditions: maximal inhibition; 48 h treatment; maximum concentration 100 µM
Description: For MTT assays, 4 × 10^3 A2780 cells were plated into 96-well plates, and for SRB assays, 1.5 × 10^3 A2780 cells were plated into 96-well plates. Cells were treated with the compounds in the concentrations indicated for either 4 h for an MTT assay or for 48 h for an SRB assay. Data are represented as average ± SD, from four biological replicates, with the exception of the MTT dataset of Ir-2b and the SRB datasets of 2b, Ru/Ir-2b, and Ir-3a, which were derived from three biological replicates. Individual assays were performed in duplicate. Values were normalized for vehicle-treated cells, and the absorbance for vehicle-treated cells equals 1. Data are represented as fold change compared to vehicle-treated controls. Normality was assessed using the D’Agostino–Pearson test. Statistical significance was assessed using a two-way ANOVA test followed by Tukey’s post hoc test. For better visibility, normality, transformations, statistical tests, and p values are presented in an MS Excel sheet at https://figshare.com/s/3a0aa60b66f3f746f41e. Color code: black—free ligand (2a,b or 3a), khaki—ruthenium complex (Ru-2a,b or Ru-3a), green—iridium complex (Ir-2a,b or Ir-3a).  FIGURE 7 The ruthenium, osmium, and iridium complexes of ligands 4a, 4b, and 5a are cytostatic on ovarian cancer models with a good therapeutic index. For SRB assays, 1.5 × 10^3 A2780 cells, 1.5 × 10^3 ID8 cells, or 4 × 10^3 primary fibroblasts were plated into 96-well plates. Cells were treated with the compounds in the concentrations indicated for 48 h. Data are represented as average ± SD, from four biological replicates on A2780 and human primary fibroblasts, except in the case of Os complexes, where experiments were performed in three biological replicates. ID8 cells were assessed in three biological replicates. Individual assays were performed in duplicate. Values were normalized for vehicle-treated cells, and the absorbance for vehicle-treated cells equals 1. Normality was assessed using the D’Agostino–Pearson test. Statistical significance was assessed using a two-way ANOVA test followed by Tukey’s post hoc test. For better visibility, normality, transformations, statistical tests, and p values are presented in an MS Excel sheet at https://figshare.com/s/3a0aa60b66f3f746f41e. Color code: black—free ligand (4a,b or 5a), khaki—ruthenium complex (Ru-4a,b), blue—osmium complex (Os-4a,b or Os-5a), green—iridium complex (Ir-4a,b), and red—rhodium complex (Rh-4a,b). An SRB assay measures protein content of cells in correlation with the cell number in an assay well and can therefore be used to assess cell proliferation or long-term cytostasis ([Skehan et al., 1990]). Cells were seeded into 96-well plates the day before the treatment for the assay. Cells were treated with the various compounds for 48 h. Then, the medium was removed, and cells were fixed with 10% trichloroacetic acid. Fixed cells were washed in distilled water three times, followed by staining with SRB (0.4 m/V% dissolved in 1% acetic acid) for 10 min. Stained cells were washed in 1% acetic acid five times; the acetic acid was removed, and the cells were left to dry. Protein-bound SRB was released by adding 100 µL of 10 mM Tris base. Plates were measured in a plate photometer (Thermo Scientific Multiscan GO spectrophotometer, Waltham, MA, United States) at 540 nm. Certain wells were designated to contain vehicle-treated cells on each plate. […] Statistical analysis was performed using version 8.0.1 of GraphPad Prism. Values were tested for normal distribution using the D’Agostino–Pearson or Shapiro–Wilk normality tests. When necessary, values were log-normalized or normalized using the Box–Cox or two-step normalization method ([Box and Cox, 1964]), as indicated in the MS Excel file listing the values at https://figshare.com/s/3a0aa60b66f3f746f41e. […]

[3] = tested on: cisplatin-resistant A2780 cells; conditions: ref Kacsir et al., 2023a; cited from earlier work
[4] = pH-potentiometric titration, protonation constants (pKa) of the ligands; format: physicochemical; conditions: 0.20 M KCl, 25.0°C; N-heterocyclic ring of the ligand
Description: In order to obtain information on the acidbase character of the ligands and on the stoichiometry and stability of the complexes present in aqueous medium, potentiometric titrations were carried out in selected systems. Based on the results, both 3a and 3b, having good enough solubility in water, are capable of releasing one hydrogen ion from the fully protonated forms in the measurable pH range (see Figure 3, “pK”). The calculated pK a values appear in Table 4; these values belong to the N-heterocyclic ring of the ligands. […]. For comparison, the previously prepared β-anomeric pair of 3a, compound 3a-β ([Kacsir et al., 2021]) in Table 4, was also studied.
For solution studies, doubly deionized and ultra-filtered water was obtained from a Milli-Q RG (Millipore) water purification system. pH-potentiometric measurements were carried out at a constant ionic strength of 0.20 M KCl and at 25.0°C. Carbonate-free KOH solutions of known concentrations (ca. 0.2 M) were used as titrant. […]. A Mettler Toledo DL50 titrator equipped with a DG114-SC combined glass electrode was used for the pH-potentiometric measurements. […] The titrations were performed in the pH range of 2.0–11.0 in equilibrium-controlled mode, during which the pH equilibrium was assumed to be reached if a change in the measured potential was less than 0.1 mV within 90 s. […]

[5] = pH-potentiometric titration, stability constants (logβ) of ML complexes; format: physicochemical; conditions: [(η^5-Cp*)Rh]^2+; 0.20 M KCl, 25.0°C
Source text: […]. […] Comparing the two metal ion containing systems, the complexation with [(η^6-p-cym)Ru]^2+, starts at a more acidic pH, but hydrolytic processes occur already in the physiological pH range due to the higher affinity of the metal ion to hydrolysis. For the [(η^5-Cp*)Rh]^2+, these processes are shifted towards higher pH; […].
For solution studies, doubly deionized and ultra-filtered water was obtained from a Milli-Q RG (Millipore) water purification system. pH-potentiometric measurements were carried out at a constant ionic strength of 0.20 M KCl and at 25.0°C. Carbonate-free KOH solutions of known concentrations (ca. 0.2 M) were used as titrant. […]. A Mettler Toledo DL50 titrator equipped with a DG114-SC combined glass electrode was used for the pH-potentiometric measurements. […] The titrations were performed in the pH range of 2.0–11.0 in equilibrium-controlled mode, during which the pH equilibrium was assumed to be reached if a change in the measured potential was less than 0.1 mV within 90 s. […] The protonation constants of the ligands and the overall stability constants of the complexes, βp,q,r = [MpHqLr]/[M]^p[H]^q[L]^r (where “M” stands for [(η^5-Cp*)Rh(H2O)3]^2+ and “L” represents the completely deprotonated form of the ligand), were calculated with the aid of the SUPERQUAD ([Gans et al., 1985]) and PSEQUAD ([Zékány and Nagypál, 1985]) computer programs, respectively. […]

Compound	A2780 MTT max % [1]	A2780 SRB max % [2]	IC50 [3]	pK a [4]	logβ [ML] [5]
CC(=O)OC[C@H]1O[C@H](n2cc(-c3ccc4ccccc4n3)nn2)[C@H](OC(C)=O)[C@@H](OC(C)=O)[C@@H]1OC(C)=O [Complex 2b, 1-(2’,3’,4’,6’-Tetra-O-acetyl-α-D-glucopyranosyl)-4-(quinolin-2-yl)-1,2,3-triazole]	0%	22.33%			
N.N.[Cl][Pt][Cl] [cisplatin]			16.5 µM		
OC[C@H]1O[C@H](n2cc(-c3ccc4ccccc4n3)nn2)[C@H](O)[C@@H](O)[C@@H]1O [Complex 3b, 1-(α-D-Glucopyranosyl)-4-(quinolin-2-yl)-1,2,3-triazole]				3.56 (1)	5.55 (3)
CC(=O)OC[C@H]1O[C@H](n2cc(-c3ccccn3)nn2)[C@H](OC(C)=O)[C@@H](OC(C)=O)[C@@H]1OC(C)=O [Complex 2a, 1-(2’,3’,4’,6’-Tetra-O-acetyl-α-D-glucopyranosyl)-4-(pyridin-2-yl)-1,2,3-triazole]	0%	0%			
